Data: patent US20070134725A1, “METHOD TO PREDICT RISK OF BPH PROGRESSION” (Baylor College of Medicine, priority 2004, published 2007)

Experiments:
men with LUTS and BPH [1] = assay: MTOPS trial of finasteride and doxazosin, alone or together, in men with BPH; Cox/competing risks models; type: in vivo, human; conditions: for Hazard Ratio: multivariable Cox model; for risk of AUR and/or SI in treated patients / risk of symptom progression in treated patients: within 4 years, result in words
Text: Medical Therapy of Prostatic Symptoms (MTOPS) is a clinical research study sponsored by the National Institutes of Health (NIH). The study tested whether the oral drugs finasteride (Proscar®) and doxazosin (Cardura®), alone or together, can further delay or prevent further prostate growth in men with BPH.
MTOPS is the largest and longest study to test whether the drugs can stop noncancerous prostate growth. Seventeen U.S. medical centers recruited […] men diagnosed with symptomatic BPH between December 1995 and March 1998. The study doctors continued to follow these men through November 2001 on a quarterly basis. In addition to the clinical progression of BPH, MTOPS included evaluations of prostate volume by ultrasound, prostate histopathobiology, quality of life and urodynamics. (Funding by NIDDK (UO1-DK-46472), 1992-2002; IND 43,564; http://www.bsc.gwu.edu/mtops/; McConnell et al., 2003).)
Herein described is the development of a nomogram similar to that shown in Examples 1 and 3 using data from the MTOPS study. In this double-blind, randomized, placebo-controlled trial, 3047 men with moderate-to-severe urinary symptoms and enlarged prostate glands were randomized to receive either 1) doxazosin+placebo; 2) finasteride+placebo; 3) doxazosin+finasteride; or 4) placebo+placebo for a minimum of four and a maximum of six years, with an average follow-up of five years. Complete data on outcomes were available for 3047 men and frozen sera was archived at baseline.
(§1) Intent-to-treat, competing risks methodology was employed to model the 3,047 men with LUTS and BPH randomized to the MTOPS trial, a 5 year, randomized, placebo-controlled study evaluating the efficacy and safety of BPH medical therapy. These men were characterized at baseline by a number of parameters, including patient age and race, AUA symptom index (AUA-SI), BPH Impact Index (BII), total prostate and TZ volume measured by ultrasound, total prostate specific antigen (PSA) level, maximum flow rate (Qmax) and post-void residual (PVR) urine volume. Cox proportional hazards regression was used to relate these baseline variables to their future probability of AUR/SI within 4 years. The nomogram was internally validated with bootstrapping to assess its discrimination and calibration. Discrimination was quantified as the concordance index (CI).
as §1, with “used” for “employed”, “(Qmax),” for “(Qmax)”, “reaching a symptom progression endpoint” for “AUR/SI”
Table 13 provides P values for a series of predictors, including BPSA levels, in a multivariate competing risks model for AUR and/or SI. BPSA is a novel serum marker for BPH, and independently predicts the risk of AUR and/or surgery in men with BPH. Thus, nomogram tools that incorporate BPSA levels may improve the ability to manage patients with BPH.

men with LUTS and BPH [2] = system: men with LUTS and BPH; design: Creatinine Rise, endpoint events: unit not given here; conditions: entire MTOPS cohort, number of events per treatment group; cited from earlier work
male subjects with BPH [3] = conditions: cited from earlier work
male subjects with BPH [4] = assay: Phase III placebo-controlled studies of dutasteride in men with BPH (ARIA 3001, 3002, 3003); Cox regression nomogram for AUR/SI within 2 years; type: in vivo, human
Text: The use of single parameters to predict the risk of BPH progression or to determine the relative reduction potentially gained with 5ARI therapy is not optimal. Nomograms are prediction tools optimized for accuracy that utilize multiple parameters to predict specific outcomes. The objective of this study was to develop a prediction model, or nomogram, that would predict the probability that a person with BPH would experience AUR or require surgical intervention (SI) within two years, using data from the recently completed Phase III studies of dutasteride versus placebo in men with BPH (Roehrborn et al. 2002).
Data from three two-year multicenter, placebo-controlled, double-blind studies evaluating dutasteride 0.5 mg/day (n=2,167) or placebo (n=2,158) in male subjects with BPH were utilized to develop a nomogram. […] Most of the 4,325 subjects randomly assigned to receive either dutasteride or placebo completed 2 years of treatment (70% and 67%, respectively).
Subjects were characterized at baseline by a number of parameters, including AUA symptom index (AUA-SI) score, BPH impact index (BII) score, prostate volume, prostate specific antigen (PSA) level, maximum urinary flow rate (Qmax), and prior use of selective α1 blockers. Cox proportional hazards regression was used to relate these baseline variables to the future probability of developing AUR or requiring surgical intervention within 2 years. The nomogram was internally validated with bootstrapping, a re-sampling technique, to assess its discrimination and calibration. Discrimination was quantified as the concordance index, which is rated from 0.5 to 1.00. Calibration was assessed visually, by plotting observed proportions against predicted probabilities, again using bootstrapping to reduce over-fit bias.
With these benefits in mind, a nomogram was constructed to predict the risk of BPH progression using data from a phase III pivotal trial (ARIA 3001, 3002, 3003) used to establish the safety and efficacy of dutasteride prior to FDA approval. For each individual predictive parameter, points are awarded by drawing a perpendicular line to the point scale along the top of the nomogram. After all points are added, a perpendicular line is drawn from the bottom, total points scale to the line below, indicating the 2 year probability of a patient's developing retention or requiring BPH-related surgery within two years. Note that the use of dutasteride (versus placebo) leads to a total point score reduced by approximately 20 to 25 points, which translates to a 50% relative risk reduction across the entire range of total points for any patient. […] Thus, a 50% relative risk reduction over two years translates into about 13 to 14% absolute risk reduction over this very short time frame, with a much greater benefit likely experienced over time.

[5] = system: men with moderate-to-severe urinary symptoms and enlarged prostate glands; conditions: PLESS, 5 mg finasteride, four years; cited from earlier work
[6] = AUR/SI within 4 years, intent-to-treat, competing risks
[7] = symptom progression (4-point rise in AUA-SI) within 4 years
[8] = dutasteride 0.5 mg/day vs placebo, over 24 months

SMILES	Hazard Ratio (men with LUTS and BPH [1]; [6])	Hazard Ratio (men with LUTS and BPH [1]; [7])	risk of AUR and/or SI in treated patients (men with LUTS and BPH [1])	risk of symptom progression in treated patients (men with LUTS and BPH [1])	AUA Rise, endpoint events (men with LUTS and BPH [2])	BPH Invasive Therapy, events (men with LUTS and BPH [2])	Creatinine Rise, endpoint events (men with LUTS and BPH [2])	Incontinence, endpoint events (men with LUTS and BPH [2])	Retention, endpoint events (men with LUTS and BPH [2])	Total endpoint events (men with LUTS and BPH [2])	UTI/urosepsis, endpoint events (men with LUTS and BPH [2])	also measured
COc1cc2nc(N3CCN(C(=O)C4COc5ccccc5O4)CC3)nc(N)c2cc1OC (stereo not shown) [doxazosin]	0.7154	0.5278	not	significantly reduced risk of symptom progression	59	41	0	11	13	85	2	–
C[C@]12C=CC(=O)N[C@@H]1CC[C@@H]1[C@@H]2CC[C@]2(C)[C@@H](C(=O)Nc3cc(C(F)(F)F)ccc3C(F)(F)F)CC[C@@H]12 [dutasteride]	–	–	–	–	–	–	–	–	–	–	–	patients who had experienced AUR and/or surgical intervention at endpoint (male subjects with BPH [3]; at endpoint, 2-year studies): 3.5%; reduction in the need for BPH-related surgery (male subjects with BPH [3]; [8]): 48%; reduction in the risk of AUR (male subjects with BPH [3]; [8]): 57%; relative risk reduction across the entire range of total points (male subjects with BPH [4]; 2-year AUR/SI nomogram): 50%; Hazard Ratio (95% CIs) (male subjects with BPH [4]; full multivariate Cox model, AUR or surgical intervention within 2 years, dutasteride vs placebo group): 0.50 (0.37, 0.66); absolute risk reduction (male subjects with BPH [4]; over two years, most severely affected patients (27% maximum risk)): 13 to 14%; reduction of nomogram total point score (male subjects with BPH [4]; use of dutasteride versus placebo, 2-year AUR/SI nomogram): 20 to 25 points; relative risk reduction of AUR and/or surgical intervention (male subjects with BPH [4]; vs placebo, at endpoint): 50%
CC(C)(C)NC(=O)[C@H]1CC[C@H]2[C@@H]3CC[C@H]4NC(=O)C=C[C@]4(C)[C@H]3CC[C@]12C [finasteride]	0.3506	0.6961	reduced risk of AUR and/or SI	significantly reduced risk of symptom progression	74	15	0	9	6	89	0	incidence of BPH-related surgery [5]: 5%; incidence of precipitated AUR [5]: 2%; incidence of spontaneous AUR [5]: 1%; overall incidence of AUR [5]: 4%
